The subject of test [1] is Salmon testes DNA. Briefly: Binding affinity towards salmon testes DNA; NA=not applicable. It is filed as nucleic-acid assay. The following applies: Oncorhynchus gorbuscha.
The subject of test [2] is A2780. Description: In vitro cytotoxicity for human ovarian tumor A2780 cells. It is filed as functional, cell-based.
The test system of test [3] is Salmon testes DNA. Briefly: Binding affinity towards salmon testes DNA. The following applies: Oncorhynchus gorbuscha. It is filed as nucleic-acid assay.

The IC50 is the concentration that inhibits the measured activity by half. Low readings indicate greater potency, high ones weaker potency.

Active and inactive are the calls of the source. The rule behind the calls is not given here.

Turning to CARBOPLATIN [listing 1 of 2 here], in test [1], the K result was “inactive”.

Take CARBOPLATIN [listing 2 of 2 here]: in test [2] (a2780), half-maximal inhibition (IC50) was put at 5.22 µM.

`COc1ccc2c(c[n+](C)c3c4cc5c(cc4ccc23)OCO5)c1OC` [CHELERYTHRINE CHLORIDE] returned an IC50 in test [2] (Homo sapiens, A2780) of 4.63 µM. For the same molecule, the K in test [3] came out at 466000 M⁻¹.

`COc1ccc(C[N+]2=C3c4ccccc4-c4ccccc4N3CC2)cc1`: 1.53 µM corresponded to half-maximal inhibition in test [2] (Homo sapiens, A2780) (IC50). In test [3], this molecule displayed a K of 28900 M⁻¹.

In test [2] (Homo sapiens, A2780), `OCC[N+]1=C2c3ccccc3-c3ccccc3N2CC1` registered an IC50 of 11.7 µM. The K in test [3] was found to be 20200 M⁻¹.

In the case of `c1ccc2c(c1)C1=NCCN1c1ccccc1-2`, the IC50 in test [2] (Homo sapiens, A2780) came out at 1.56 µM. Further, the K in test [3] was found to be 25600 M⁻¹.

`CCCCCCCCCCCC[N+]1=C2c3ccccc3-c3ccccc3N2CC1` had an IC50 in test [2] (Homo sapiens, A2780) of 0.087 µM. This molecule gave a K in test [3] of 129000 M⁻¹.
